Experimental findings from PubChem BioAssay (NCI) are described below.

Some test systems named below: NCI/ADR-RES ovarian; SNB-19 CNS; UACC-257 melanoma; SK-OV-3 ovarian; UACC-62 melanoma; SF-295 CNS; HS 578T breast; EKVX NSCLC; RPMI-8226 leukemia; SR leukemia.
What all share (assay): NCI tumour cell line growth inhibition, 48 h

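Cultured in 96-well plates, cells were exposed to test compound for 48 hours across five concentrations. GI50 is the concentration that inhibits growth by half. TGI is the concentration that stops growth completely.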

As for `CN(C)CC(O)c1ccc(Cl)c2ccccc12` (stereo unspecified), the TGI was over 100 µM in the experiment with NCI/ADR-RES ovarian; over 100 µM with SNB-19 CNS; 38.2 µM in the experiment on UACC-257 melanoma; over 100 µM in the experiment with SK-OV-3 ovarian; 34 µM with UACC-62 melanoma; over 63.6 µM in the experiment with SF-295 CNS. Besides, the TGI in the experiment on HS 578T breast is over 100 µM; with EKVX NSCLC, over 100 µM; with RPMI-8226 leukemia, 11 µM.

With `C=CCn1c(=O)c(C)cn(COCCO)c1=O`, the TGI in the experiment with NCI/ADR-RES ovarian, with SNB-19 CNS, in the experiment with UACC-257 melanoma, in the experiment with HS 578T breast, in the experiment with EKVX NSCLC and with RPMI-8226 leukemia was over 100 µM throughout.

As for `O=S1(=O)c2ccccc2Oc2ccc(C(/C=N/O)=N/O)cc21`, the TGI is 53.9 µM in the experiment on NCI/ADR-RES ovarian; over 100 µM in the experiment with SK-OV-3 ovarian; over 100 µM with UACC-62 melanoma; 51.2 µM in the experiment on SF-295 CNS; 57.7 µM in the experiment on EKVX NSCLC; 53.5 µM with RPMI-8226 leukemia.

On to `Cc1cc([NH-])c([NH-])cc1C.[Cl][Pt+2][Cl]`, for which the GI50 is 16.3 µM in the experiment on NCI/ADR-RES ovarian; 10.5 µM with SNB-19 CNS; 22.4 µM with UACC-257 melanoma; over 96.8 µM in the experiment on SK-OV-3 ovarian; 8.88 µM with UACC-62 melanoma; 3.36 µM with SF-295 CNS. Further, the GI50 was 19.7 µM in the experiment on EKVX NSCLC and 9.49 µM with RPMI-8226 leukemia. Moreover, the TGI is 42.7 µM with NCI/ADR-RES ovarian; over 100 µM in the experiment on SNB-19 CNS; over 67.2 µM in the experiment with UACC-257 melanoma; over 100 µM in the experiment with SK-OV-3 ovarian; 27.3 µM in the experiment with UACC-62 melanoma; 16.1 µM in the experiment on SF-295 CNS. The TGI came to 46.7 µM in the experiment on EKVX NSCLC and 60.2 µM in the experiment with RPMI-8226 leukemia.

As to `CCCCN(CCCC)Cc1cc(Nc2ccnc3cc(Cl)ccc23)ccc1O`, the GI50 is 4.38 µM in the experiment with NCI/ADR-RES ovarian; 40.1 µM with UACC-257 melanoma; 8.83 µM in the experiment with SK-OV-3 ovarian; 6.59 µM with SR leukemia; 6.6 µM in the experiment with RPMI-8226 leukemia. Moreover, the TGI with NCI/ADR-RES ovarian, with UACC-257 melanoma, in the experiment on SK-OV-3 ovarian, in the experiment on SR leukemia and in the experiment on RPMI-8226 leukemia was over 100 µM throughout.

As to `O=C1[C@H](O)[C@@H]2C(O)O[C@H]3[C@@H]2N1C[C@H]3[Si](c1ccccc1)(c1ccccc1)c1ccccc1` (stereo partly specified), the TGI in the experiment with NCI/ADR-RES ovarian, with SNB-19 CNS, with UACC-257 melanoma, in the experiment on SK-OV-3 ovarian, in the experiment on UACC-62 melanoma and in the experiment with SR leukemia was over 100 µM throughout. In addition, the TGI in the experiment with SF-295 CNS, with EKVX NSCLC and with RPMI-8226 leukemia was over 100 µM each time.

Consider `[N-]=[N+]=Nc1c(Cc2ccccc2)c(Cl)nc2ccccc12`, for which the TGI in the experiment with NCI/ADR-RES ovarian is over 100 µM; with SNB-19 CNS, 83.1 µM; with UACC-257 melanoma it was over 100 µM; in the experiment with SK-OV-3 ovarian, over 100 µM; in the experiment with UACC-62 melanoma it was 68.8 µM; in the experiment with SF-295 CNS, 62.1 µM. Also, the TGI in the experiment on HS 578T breast is 54.4 µM; in the experiment on EKVX NSCLC it was over 100 µM; in the experiment on RPMI-8226 leukemia, 87.3 µM.

For `Nc1n(CC(=O)c2ccccc2)nc2sc(-c3ccccc3)n[n+]12`, the TGI in the experiment with NCI/ADR-RES ovarian was over 100 µM; in the experiment on SNB-19 CNS, over 100 µM; in the experiment on UACC-257 melanoma it was over 100 µM; in the experiment on SK-OV-3 ovarian, 92 µM; in the experiment with UACC-62 melanoma, 25.1 µM; in the experiment on SF-295 CNS, 55 µM. For the same molecule, the TGI in the experiment with HS 578T breast is over 100 µM; with EKVX NSCLC, over 100 µM; in the experiment with RPMI-8226 leukemia it was 58.8 µM.

On to `Cc1ccc(C)c(NC(=O)C(=O)C(C(=O)c2ccc3ccccc3c2)C2OC(=O)c3ccccc32)c1` (stereo unspecified), for which the TGI in the experiment with SNB-19 CNS was 31.2 µM; in the experiment with UACC-257 melanoma, 36.5 µM; in the experiment on SK-OV-3 ovarian, 48.9 µM; in the experiment on UACC-62 melanoma, 27.8 µM; with SR leukemia, over 100 µM; with SF-295 CNS, 66.2 µM. In addition, the TGI in the experiment on EKVX NSCLC is 51.1 µM; in the experiment on RPMI-8226 leukemia it was over 100 µM.

As to `CCCCCOc1ccc(C=Nc2ccc(CCc3ccc(N=Cc4ccc(OCCCCC)cc4)cc3)cc2)cc1`, the TGI in the experiment with NCI/ADR-RES ovarian, with SNB-19 CNS, in the experiment with UACC-257 melanoma, with SK-OV-3 ovarian, in the experiment on UACC-62 melanoma and with SF-295 CNS was over 100 µM each time. Besides, the TGI in the experiment with EKVX NSCLC and with RPMI-8226 leukemia was over 100 µM each time.

For the molecule `Cn1c(=O)c2c(nc3n(CC(O)CCl)c(=O)ccn23)n(C)c1=O` (stereo unspecified), the TGI in the experiment on NCI/ADR-RES ovarian, with SNB-19 CNS, in the experiment with UACC-257 melanoma, with SK-OV-3 ovarian, with UACC-62 melanoma and with SF-295 CNS was over 100 µM throughout. The TGI with HS 578T breast, in the experiment with EKVX NSCLC and in the experiment with RPMI-8226 leukemia was over 100 µM in each case.

Consider `CCOC(=O)c1c(C)n(Cc2ccc(Cl)cc2Cl)c2c1cc(O)c1[nH]c3c(c12)CCCC3`, for which the TGI with NCI/ADR-RES ovarian was 43.4 µM; with SNB-19 CNS, 58 µM; in the experiment with UACC-257 melanoma, 43.2 µM; in the experiment on SK-OV-3 ovarian, over 100 µM; with UACC-62 melanoma, 49.2 µM; with SR leukemia, 0.379 µM. Moreover, the TGI in the experiment on SF-295 CNS is 97.2 µM; in the experiment with EKVX NSCLC, over 100 µM; with RPMI-8226 leukemia, 50.7 µM.

Regarding `O=C(O)CC(Cc1ccccc1Cl)C(=O)O` (stereo unspecified), the TGI in the experiment with NCI/ADR-RES ovarian, in the experiment on SNB-19 CNS, with UACC-257 melanoma, with SK-OV-3 ovarian, in the experiment with UACC-62 melanoma and in the experiment with SF-295 CNS was over 100 µM each time. The TGI with HS 578T breast, in the experiment on EKVX NSCLC and in the experiment on RPMI-8226 leukemia was over 100 µM each time.

On to `O=c1[nH]cc(NCCCl)c(=O)[nH]1`, for which the TGI with NCI/ADR-RES ovarian, with SNB-19 CNS, in the experiment on UACC-257 melanoma, in the experiment on SK-OV-3 ovarian, in the experiment with UACC-62 melanoma and in the experiment on SR leukemia was over 100 µM in each case. Besides, the TGI with SF-295 CNS, in the experiment with EKVX NSCLC and with RPMI-8226 leukemia was over 100 µM throughout.
